In publication PMC5926414 (Japanese Journal of Cancer Research : Gann, 2000):
Where two headings read alike, the source gives them in different places. Square brackets hold non-standard residues; d marks the D form. Peptide text beside a SMILES is read from it. * marks the point of attachment. X1 = COC1=CC(=O)N(C(=O)[C@@H](O*)C(C)C)[C@H]1Cc1ccccc1; NMe2Val = CC(C)[C@@H](C(=O)*)N(C)C; NMeV = CN[C@H](C(=O)O)C(C)C

Key:
porcine brain tubulin [1] = target: T1, porcine brain tubulin (Sus scrofa, UniProt P02550+P02554); type: binding
[2] = target: T2, porcine brain microtubule protein (Sus scrofa, UniProt P02550+P02554); assay: biochemical
porcine brain tubulin [3] = type: binding
porcine brain tubulin [4] = target: T1, porcine brain tubulin; assay: biochemical; type: binding
porcine brain tubulin [5] = type: biochemical
porcine brain tubulin [6] = settings: ref 28 (Huang et al.); cited from earlier work
[7] = target: T2, porcine brain microtubule protein; assay: biochemical; settings: read-out: inhibition of microtubule polymerization, agent alone
bovine brain tubulin [8] = target: T3, bovine brain tubulin (Bos taurus, UniProt P81947+Q6B856); assay: biochemical
bovine brain tubulin [9] = target: T3, bovine brain tubulin; settings: read-out: IC50, inhibition of monosodium glutamate-induced tubulin polymerization; in 4% DMSO; ref 8 (Bai et al.); cited from earlier work

T2 sequence (P02550 whole entry): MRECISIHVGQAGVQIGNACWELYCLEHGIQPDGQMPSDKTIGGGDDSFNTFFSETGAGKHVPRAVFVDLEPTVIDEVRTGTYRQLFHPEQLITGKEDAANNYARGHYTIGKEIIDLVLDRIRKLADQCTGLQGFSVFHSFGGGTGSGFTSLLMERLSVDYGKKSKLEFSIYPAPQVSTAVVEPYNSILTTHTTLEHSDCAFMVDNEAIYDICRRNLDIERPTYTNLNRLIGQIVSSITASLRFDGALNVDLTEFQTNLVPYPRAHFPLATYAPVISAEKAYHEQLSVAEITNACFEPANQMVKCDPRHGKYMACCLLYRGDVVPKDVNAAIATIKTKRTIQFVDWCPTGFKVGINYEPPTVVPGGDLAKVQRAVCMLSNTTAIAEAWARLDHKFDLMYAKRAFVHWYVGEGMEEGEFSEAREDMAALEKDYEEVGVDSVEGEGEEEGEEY
T2 sequence (P02554 whole entry): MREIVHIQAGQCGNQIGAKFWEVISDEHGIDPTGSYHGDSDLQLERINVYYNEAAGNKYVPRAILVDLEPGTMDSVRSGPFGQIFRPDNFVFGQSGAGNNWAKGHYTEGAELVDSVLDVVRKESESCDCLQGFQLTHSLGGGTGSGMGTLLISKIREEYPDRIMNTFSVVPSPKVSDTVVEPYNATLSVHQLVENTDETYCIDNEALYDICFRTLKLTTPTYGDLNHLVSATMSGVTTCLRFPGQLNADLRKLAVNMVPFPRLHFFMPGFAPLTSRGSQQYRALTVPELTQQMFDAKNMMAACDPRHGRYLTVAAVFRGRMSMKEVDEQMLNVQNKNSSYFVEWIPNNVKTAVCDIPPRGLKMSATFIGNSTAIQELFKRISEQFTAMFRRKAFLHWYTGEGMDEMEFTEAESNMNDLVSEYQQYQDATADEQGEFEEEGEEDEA
T1 sequence (P02550 whole entry): as the sequence (P02550 whole entry) above
T1 sequence (P02554 whole entry): as the sequence (P02554 whole entry) above
T3 sequence (P81947 whole entry): as the sequence (P02550 whole entry) above, with S136L, G232S, A265I, T340S, E358Q counted along it
T3 sequence (Q6B856 whole entry): as the sequence (P02554 whole entry) above, with A55T, V170M, A296S, V316I, G440E, E441G counted along it

Row | Structure (SMILES) | displacement of [3H]TZT-1027 on tubulin (porcine brain tubulin [1]) | displacement of [3H]VLB on tubulin (porcine brain tubulin [1]) | IC50 [2] [nM] | inhibitory effect on microtubule polymerization at high concentration [2] | inhibition of [3H]GTP binding to tubulin (porcine brain tubulin [3]) | Bmax, binding to tubulin (one binding site) (porcine brain tubulin [4]) [nM/mg protein] | Kd (porcine brain tubulin [4]) [nM] | inhibition of GTP hydrolysis on tubulin (porcine brain tubulin [5]) | concentration with inhibitory effect on the binding of GTP to tubulin (porcine brain tubulin [6]) | inhibition at 3 µM [7] [%] | IC50 (bovine brain tubulin [8]) [nM] | effect on tubulin polymerization at high concentration (bovine brain tubulin [8]) | IC50 (bovine brain tubulin [9]) [nM] | inhibition at 3 µM (bovine brain tubulin [8]; read-out: inhibition of monosodium glutamate-induced tubulin polymerization) [%]
1 | CC(=O)O[C@H]1C(=O)[C@@]2(C)[C@H]([C@H](OC(=O)c3ccccc3)[C@]3(O)C[C@H](OC(=O)[C@H](O)[C@@H](NC(=O)c4ccccc4)c4ccccc4)C(C)=C1C3(C)C)[C@]1(OC(C)=O)CO[C@@H]1C[C@@H]2O [PTX, paclitaxel] | did not have remarkable inhibitory effects | did not have remarkable inhibitory effects | – | – | – | – | – | – | – | – | – | – | – | –
2 | CC[C@]1(O)C[C@H]2CN(CCc3c([nH]c4ccccc34)[C@@](C(=O)OC)(c3cc4c(cc3OC)N(C=O)[C@H]3[C@@](O)(C(=O)OC)[C@H](OC(C)=O)[C@]5(CC)C=CCN6CC[C@]43[C@@H]65)C2)C1 [VCR, vincristine] | the displacement was not complete | – | 1600 ± 400 | slight decrease in inhibitory effect | – | – | – | – | – | – | – | – | – | –
3 | CC[C@]1(O)C[C@@H]2CN(CCc3c([nH]c4ccccc34)[C@@](C(=O)OC)(c3cc4c(cc3OC)N(C)[C@H]3[C@@](O)(C(=O)OC)[C@H](OC(C)=O)[C@]5(CC)C=CCN6CC[C@]43[C@@H]65)C2)C1 [VLB, vinblastine] | only incompletely | – | 2700 ± 600 | slight decrease in inhibitory effect | no inhibitory effect | 6.0±0.26 | 200 ± 40 | concentration-dependent inhibition | above 100 M | 64.7 | 600 | aggregation | – | –
4 | CC[C@H](C)[C@@H]([C@@H](CC(=O)N1CCC[C@H]1[C@H](OC)[C@@H](C)C(=O)N[C@@H](Cc1ccccc1)c1nccs1)OC)N(C)C(=O)[C@@H](NC(=O)[C@H](C(C)C)N(C)C)C(C)C [dolastatin 10] | completely displaced | completely displaced | 2300 ± 700 | – | concentration-dependent inhibition | – | – | concentration-dependent inhibition | – | – | 2800 | no further increase in inhibition | 1200 | 88
5 | COC1=CC(=O)N(C(=O)[C@@H](OC(=O)[C@@H]2CCCN2C(=O)[C@@H]2CCCN2C(=O)[C@H](C(C)C)N(C)C(=O)[C@@H](NC(=O)[C@H](C(C)C)N(C)C)C(C)C)C(C)C)[C@H]1Cc1ccccc1 [dolastatin 15] (NMe2Val-V[NMeV]PP-X1) | did not have remarkable inhibitory effects | did not have remarkable inhibitory effects | – | – | – | – | – | concentration-dependent inhibition | – | – | – | – | – | –
